Here are results for 1 compound from patent publication US9913831B2, “Methods and compositions for treating nephrogenic diabetes insipidus” (UNIVERSITY OF UTAH RESEARCH FOUNDATION, priority 2011, dated 2018).

This series relates to lithium-treated rats. The series can be described thus: Effect of clopidogrel on lithium-induced alterations in rats (natriuresis, urinary nitrates/nitrites, hematocrit, body and kidney weight). As to conditions: 2 weeks. Here is the method: Animal experiments: Male Sprague-Dawley rats were purchased from Charles River (Wilmington, Mass., USA), and Brattleboro mutant rats that lack AVP (HsdBlu:BRAT-Avp^di) were obtained from the Rat Resource & Research Center (RRRC), University of Missouri, Columbia, Mo., USA. Mice (B6D2 genetic background) were bred in-house. […] Lithium-added chow (40 mmol Li/kg chow) was custom prepared (MP Biomedicals, Aurora, Ohio, USA). Clopidogrel bisulfate was administered orally by powdering and dissolving Plavix® tablets (Bristol-Myers Squibb, New York, N.Y., USA) in drinking water. The concentration of the drug in the drinking water was adjusted daily based on the water consumption of the animals the previous day. The clopidogrel dose used in Sprague-Dawley rats (20 mg/kg bw/day) was the same as used by other investigators (de La Crux et al, 2003; Graciano et al, 2008). In mice, clopidogrel was administered at a dose of 80 mg/kg bw/day. When compared with the human clinical dose of Plavix®, and adjusted to the Km factor (ratio of body surface area to body weight) of the species (man vs. rat or mouse) (Reagan-Shaw et al, 2007), the doses used in rats or mice were 2.5- and 5-fold higher, respectively. […] A higher dose of clopidogrel (40 mg/kg bw/day) was used in Brattleboro rats to ensure an unequivocal outcome whether positive or negative. Twenty-four hour urine samples were collected by placing the animals in the appropriate metabolic cages designed for rats and mice. Blood and kidney tissues were collected at necropsy. Cortical, outer and inner medullary regions of the kidneys were dissected out and processed for laboratory assays.
Blood, urine and tissue analysis: Osmolalities of clear urine samples were measured by vapor pressure method (Wescor, Logan, Utah, USA). Microhematocrit was determined by centrifuging free-flowing blood collected in heparinized capillary tubes in a microhematocrit centrifuge (Clay Adams, Parsippany, N.J., USA). Urinary excretion of AVP was quantified by a commercial ELISA kit (Enzo Life Sciences, Farmingdale, N.Y., USA). Total nitrate/nitrite contents of urine samples were determined by a commercial kit (Cayman Chemical, Ann Arbor, Mich.).Na, Li and K levels in serum and/or urine were determined on EasyElectrolyte® (Medica Corp., Bedford, Mass., USA). Based on serum and urine analysis, electrolyte-free clearance [CH20(e)] was computed using the formula CH20(e)=V((1−UNa+UK)/PNa), where V=urine volume, UNa and UK are urine Na and K, and PNa is plasma Na, respectively (Schrier 2006). Lithium levels in inner medullary tissue homogenates were assayed by Inductively Coupled Plasma-Mass Spectrometry (ICPMS) by Exova (Santa Fe Springs, Calif., USA), and were normalized to their respective protein contents.
Statistical Analysis: All quantitative data are expressed as mean±standard error (SE). Comparisons among the means of multiple groups were made by one-way analysis of variance (ANOVA), followed by the assessment of statistical significance by Tukey-Kramer Multiple Comparison Test or Student-Newman-Keuls Multiple Comparison Test. Differences between the means of two groups were determined by unpaired t test or where applicable, by Mann-Whitney nonparametric test. P values less than 0.05 were considered significant. GraphPad Instat® (GraphPad Software, Inc., La Jolla, Calif.) was used for statistical analysis.

[1] abbreviates: rats, lithium treatment alone (40 mmol Li/kg chow).

On to `[Li]` [Lithium, lithium], for which, where the note is “lithium-treated rats with or without added clopidogrel”, the “kidney weight as a percent of body weight” value is recorded as “did not change”. Further, under setting [1], the “gain in body weight” value is given as “significantly low” and the terminal hematocrit result is on record as “significant elevation”.
